What was measured:
[1] = tested on: NIH-3T3 non-cancerous cells; experiment: Neutral red uptake (NRU) toxicity assay, NIH-3T3; type: cell-based; details: non-cancerous mouse fibroblasts
Experimental: Melanoma human cancer cell line (A375 and MDA-MB-435) were obtained from ATCC. The NIH-3T3 cell line was generously gifted by the ANSM (French National Agency for Medicines and Health Products Safety, Vendargues, France). Cells were cultured in Dulbecco’s Modified Eagle Medium (DMEM, Sigma Aldrich) supplemented with 10% heat-inactivated foetal calf serum (FCS, Gibco), 2 mM glutamax (Gibco), 100 IU/mL penicillin G sodium (Sigma Aldrich), 100 lU/mL streptomycin sulphate (Sigma Aldrich). The cells were allowed to grow at 37 °C in a fully humidified atmosphere containing 5% CO2.
A viability assay was used to evaluate the cytotoxic activity on A375 and MDA-MB-435 melanoma cells as previously described. According to OCDE/ICCVAM guidance n°129, NRU assay was also used to evaluate the toxicity on the non-cancerous NIH-3T3 cells. Cells were seeded at a final concentration of 2000 cells/well (A375), 3000 cells/well (NIH-3T3) or 7500 cells/well (MDA-MB-435) in 96-well microtiter plates for 24 h. Then, cells were exposed to two negative controls (1% DMSO in culture medium (vehicle) and culture medium alone), or to different compounds freshly dissolved in DMSO, in a range of concentration from 0.01 to 40 µM (six wells per concentration). After 72 h of incubation, cells were stained with new medium containing 50 µg/mL of neutral red (3-amino-7-dimethylamino-2-methylphenazine hydrochloride, Sigma Aldrich) at 37 °C for 2 h. The neutral red medium solution was then removed and the wells were washed with PBS. Finally, 100 µL of solution containing ethanol, acetic acid and water (50/1/49 v/v/v respectively) were added into the wells and the absorbance was measured at 540 nm using the microplate reader 352 Multiscan MS (Labsystems). Cell survival rates were normalised to the absorbance values of untreated control cells. IC50 was obtained using a logistic regression model on Graphpad Prism 5.0 software. Results are given as the mean ± standard deviation (SD) of three independent experiments. Statistical analysis was performed using the Student’s t-test.
Then, all active compounds on the two melanoma cell lines (IC50 < 40 µM) were assessed on the NIH-3T3 mouse fibroblast cell line, in order to check the toxicity of our compounds on non-cancerous cells. […] As a possible modification of the mechanism of action was hypothesised for these two derivatives (see above), this phenomenon could probably be also correlated with the cytotoxicity observed on the NIH-3T3 cell line.

OVCAR-8 = experiment: NCI-60 SRB assay, OVCAR-8 (Ovarian Cancer); type: cell-based, human; details: 10 µM, 48 h; for G%: growth vs untreated control;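 as to Mean G% - G%: mean growth across the NCI-60 panel minus this line's growth with positive meaning more sensitive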
Experimental: (§1) Primary anticancer assay was performed on a panel of 60 human cancer cell lines derived from nine neoplastic diseases, in accordance with the protocol of the Drug Evaluation Branch, National Cancer Institute, Bethesda, Maryland, USA[22]. Cells were incubated with tested compounds at 10 µM for 48 h. The growth percentage was evaluated spectrophotometrically using a protein binding dye, SRB. Results for each tested compound were reported as the percent of growth of treated cells when compared to untreated control cells.
(§2) To better compare the activity profile of these two series of compounds, compounds 5 and 8 were selected and then evaluated towards a panel of sixty cancer cell lines corresponding to nine different cancer types, i.e. leukaemia, melanoma, as well as lung, colon, central nervous system, ovarian, renal, prostate and breast cancers (NCI evaluation). Indeed, it is now well established that the growth inhibitory patterns of anticancer drugs against the NCI-60 cell line panel correlated well with their modes of action. For example, compounds that bind to tubulin have similar growth inhibition patterns regardless of which site on tubulin they bind[30]. […] Compounds were tested using the sulforhodamine B (SRB) assay that provides a direct cell density index. The amount of dye incorporated by the cells increases with the increase of the total protein biomass. Cells were incubated for 48 h with compounds at 10 µM concentration, then cell growth was evaluated spectrophotometrically and presented as the percent of untreated control cells. Values of the most sensitive cell lines were compared to those obtained with JMV5038 (Figure 4, for all data see SI).

COLO 205 = experiment: NCI-60 SRB assay, COLO 205 (Colon Cancer); type: cell-based, human; details: 10 µM, 48 h; for G%: growth vs untreated control
Experimental: as §1, §2

NCI-H460 = experiment: NCI-60 SRB assay, NCI-H460 (NSCLC); type: cell-based, human; details: 10 µM, 48 h; for G%: growth vs untreated control
Experimental: as §1, §2

OVCAR-4 = experiment: NCI-60 SRB assay, OVCAR-4 (Ovarian Cancer); type: cell-based, human; details: 10 µM, 48 h; for G%: growth vs untreated control;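 as to Mean G% - G%: mean growth across the NCI-60 panel minus this line's growth with positive meaning more sensitive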
Experimental: as §1, §2

SK-OV-3 = experiment: NCI-60 SRB assay, SK-OV-3 (Ovarian Cancer); type: cell-based, human; details: 10 µM, 48 h; for G%: growth vs untreated control
Experimental: as §1, §2

MDA-MB-468 = experiment: NCI-60 SRB assay, MDA-MB-468 (Breast Cancer); type: cell-based, human; details: 10 µM, 48 h; for G%: growth vs untreated control;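 as to Mean G% - G%: mean growth across the NCI-60 panel minus this line's growth with positive meaning more sensitive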
Experimental: as §1, §2

MCF7 = experiment: NCI-60 SRB assay, MCF7 (Breast Cancer); type: cell-based, human; details: 10 µM, 48 h; for G%: growth vs untreated control;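 as to Mean G% - G%: mean growth across the NCI-60 panel minus this line's growth with positive meaning more sensitive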
Experimental: as §1, §2

MALME-3M = experiment: NCI-60 SRB assay, MALME-3M (Melanoma); type: cell-based, human; details: 10 µM, 48 h; for G%: growth vs untreated control
Experimental: as §1, §2

IGROV1 = experiment: NCI-60 SRB assay, IGROV1 (Ovarian Cancer); type: cell-based, human; details: 10 µM, 48 h; for G%: growth vs untreated control
Experimental: as §1, §2

HCT-116 = experiment: NCI-60 SRB assay, HCT-116 (Colon Cancer); type: cell-based, human; details: 10 µM, 48 h; for G%: growth vs untreated control
Experimental: as §1, §2

MDA-MB-435 = experiment: NCI-60 SRB assay, MDA-MB-435 (Melanoma); type: cell-based, human; details: 48 h; for Mean G% - G% / G%: MDA-MB-435, 10 µM, SRB; for G%: growth vs untreated control
Experimental: as §1, §2

NCI-H226 = experiment: NCI-60 SRB assay, NCI-H226 (NSCLC); type: cell-based, human; details: 10 µM, 48 h; for G%: growth vs untreated control
Experimental: as §1, §2

SK-MEL-5 = experiment: NCI-60 SRB assay, SK-MEL-5 (Melanoma); type: cell-based, human; details: 10 µM, 48 h; for G%: growth vs untreated control
Experimental: as §1, §2

SK-MEL-28 = experiment: NCI-60 SRB assay, SK-MEL-28 (Melanoma); type: cell-based, human; details: 10 µM, 48 h; for G%: growth vs untreated control
Experimental: as §1, §2

A549/ATCC = experiment: NCI-60 SRB assay, A549/ATCC (NSCLC); type: cell-based, human; details: 10 µM, 48 h; for G%: growth vs untreated control
Experimental: as §1, §2

NCI/ADR-RES = experiment: NCI-60 SRB assay, NCI/ADR-RES (Ovarian Cancer); type: cell-based, human; details: 10 µM, 48 h; for G%: growth vs untreated control
Experimental: as §1, §2

HS 578T = experiment: NCI-60 SRB assay, HS 578T (Breast Cancer); type: cell-based, human; details: 10 µM, 48 h; for G%: growth vs untreated control
Experimental: as §1, §2

LOX IMVI = experiment: NCI-60 SRB assay, LOX IMVI (Melanoma); type: cell-based, human; details: 10 µM, 48 h; for G%: growth vs untreated control
Experimental: as §1, §2

UO-31 = experiment: NCI-60 SRB assay, UO-31 (Renal Cancer); type: cell-based, human; details: 10 µM, 48 h; for G%: growth vs untreated control
Experimental: as §1, §2

TK-10 = experiment: NCI-60 SRB assay, TK-10 (Renal Cancer); type: cell-based, human; details: 10 µM, 48 h; for G%: growth vs untreated control
Experimental: as §1, §2

C[C@@H]1NC(c2ccc(N=[N+]=[N-])cc2)=Nc2nc3ccccn3c2C1=O [Compound 5, (4S)-4-methyl-2-(4-azidophenyl)-3,4-dihydro-5H-pyrido[1’,2’:1,2]imidazo[4,5-d][1,3]diazepin-5-one]
IC50 ([1]; Mus musculus, NIH3T3, 72 h): > 40 µM | Mean G% - G% (OVCAR-8): -16,08% | G% (OVCAR-8): 101,34% | Mean G% - G% (COLO 205): 5,95% | G% (COLO 205): 79,31% | Mean G% - G% (NCI-H460): -8,41% | G% (NCI-H460): 93,67% | Mean G% - G% (OVCAR-4): -3,32% | G% (OVCAR-4): 88,58% | Mean G% - G% (SK-OV-3): -1,19% | G% (SK-OV-3): 86,45% | Mean G% - G% (MDA-MB-468): 11,88% | G% (MDA-MB-468): 73,38% | Mean G% - G% (MCF7): 26,64% | G% (MCF7): 58,62% | Mean G% - G% (MALME-3M): 3,28% | G% (MALME-3M): 81,98% | Mean G% - G% (IGROV1): 10,76% | G% (IGROV1): 74,50% | Mean G% - G% (HCT-116): -2,45% | G% (HCT-116): 87,71% | inhibition at 10 µM (MDA-MB-435; Homo sapiens, MDA-MB-435, NCI-60 SRB, read-out: growth inhibition percentage): 87% | Mean G% - G% (MDA-MB-435): 72,64% | G% (MDA-MB-435): 12,62% | Mean G% - G% (NCI-H226): -3,88% | G% (NCI-H226): 89,14% | Mean G% - G% (SK-MEL-5): 14,40% | G% (SK-MEL-5): 70,86% | Mean G% - G% (SK-MEL-28): -9,13% | G% (SK-MEL-28): 94,39% | Mean G% - G% (A549/ATCC): -3,81% | G% (A549/ATCC): 89,07% | Mean G% - G% (NCI/ADR-RES): 11,92% | G% (NCI/ADR-RES): 73,34% | Mean G% - G% (HS 578T): -10,95% | G% (HS 578T): 96,21% | Mean G% - G% (LOX IMVI): 4,81% | G% (LOX IMVI): 80,45% | Mean G% - G% (UO-31): 15,67% | G% (UO-31): 69,59% | Mean G% - G% (TK-10): -48,01% | G% (TK-10): 133,27%

[N-]=[N+]=NCCCC[C@@H]1NC(c2ccc(Br)cc2)=Nc2nc3ccccn3c2C1=O [Compound 16, (4S)-4-(4-azidobutyl)-2-(4-bromophenyl)-3,4-dihydro-5H-pyrido[1’,2’:1,2]imidazo[4,5-d][1,3]diazepin-5-one]
IC50 ([1]; 72 h): 9.9 ± 0.51 µM | IC50 ([1]; Mus musculus, NIH3T3, 72 h): ~10 µM | Mean G% - G% (OVCAR-8): 6,78% | G% (OVCAR-8): 84,99% | Mean G% - G% (COLO 205): -15,42% | G% (COLO 205): 107,19% | Mean G% - G% (NCI-H460): 0,98% | G% (NCI-H460): 90,79% | Mean G% - G% (OVCAR-4): -2,91% | G% (OVCAR-4): 94,68% | Mean G% - G% (SK-OV-3): 5,78% | G% (SK-OV-3): 85,99% | Mean G% - G% (MDA-MB-468): -6,46% | G% (MDA-MB-468): 98,23% | Mean G% - G% (MCF7): 11,80% | G% (MCF7): 79,97% | Mean G% - G% (MALME-3M): -22,73% | G% (MALME-3M): 114,50% | Mean G% - G% (IGROV1): 70,16% | G% (IGROV1): 21,61% | Mean G% - G% (HCT-116): -1,04% | G% (HCT-116): 92,81% | Mean G% - G% (MDA-MB-435): -13,77% | G% (MDA-MB-435): 105,54% | Mean G% - G% (NCI-H226): 3,58% | G% (NCI-H226): 88,19% | Mean G% - G% (SK-MEL-5): 3,83% | G% (SK-MEL-5): 87,94% | Mean G% - G% (SK-MEL-28): -18,13% | G% (SK-MEL-28): 109,90% | Mean G% - G% (A549/ATCC): 16,61% | G% (A549/ATCC): 75,16% | Mean G% - G% (NCI/ADR-RES): -9,49% | G% (NCI/ADR-RES): 101,26% | Mean G% - G% (HS 578T): -1,51% | G% (HS 578T): 93,28% | Mean G% - G% (LOX IMVI): 5,56% | G% (LOX IMVI): 86,21% | Mean G% - G% (UO-31): 27,99% | G% (UO-31): 63,78% | Mean G% - G% (TK-10): -38,14% | G% (TK-10): 129,91%
